Active and inactive are the calls of the source. No cut-off for these calls is given here.

In general, IC50 refers to the concentration that gives 50% inhibition. A low value points to inhibition by little substance.

Assay [1] concerns Mus musculus. As to the kind of experiment: Memory enhancing effect in ICR mouse assessed as reversal of scopolamine-induced amnesia by measuring step-through latencies at 0.25 to 5 mg/kg, po administered 1 hr prior to acquisition trial measured after 24 hrs by passive avoidance test. It counts as functional, organism-based.
The test system of assay [2] is Mus musculus. As to the kind of experiment: Memory enhancing effect in ICR mouse assessed as reversal of scopolamine-induced amnesia by measuring step-through latencies at 0.5 to 5 mg/kg, po after 1 hr by passive avoidance test. It counts as functional, organism-based.
Assay [3] has as its system Mus musculus. As to the kind of experiment: Memory enhancing effect in ICR mouse assessed as reversal of scopolamine-induced amnesia by measuring step-through latencies at 1 mg/kg, po administered 1 hr prior to acquisition trial measured after 24 hrs by passive avoidance test relative to control. Also noted: dose 1 mg/kg. The class given is functional, organism-based.

The next assay addresses T1, Acetylcholinesterase (Mus musculus, UniProt P21836).
T1 sequence (P21836 whole entry): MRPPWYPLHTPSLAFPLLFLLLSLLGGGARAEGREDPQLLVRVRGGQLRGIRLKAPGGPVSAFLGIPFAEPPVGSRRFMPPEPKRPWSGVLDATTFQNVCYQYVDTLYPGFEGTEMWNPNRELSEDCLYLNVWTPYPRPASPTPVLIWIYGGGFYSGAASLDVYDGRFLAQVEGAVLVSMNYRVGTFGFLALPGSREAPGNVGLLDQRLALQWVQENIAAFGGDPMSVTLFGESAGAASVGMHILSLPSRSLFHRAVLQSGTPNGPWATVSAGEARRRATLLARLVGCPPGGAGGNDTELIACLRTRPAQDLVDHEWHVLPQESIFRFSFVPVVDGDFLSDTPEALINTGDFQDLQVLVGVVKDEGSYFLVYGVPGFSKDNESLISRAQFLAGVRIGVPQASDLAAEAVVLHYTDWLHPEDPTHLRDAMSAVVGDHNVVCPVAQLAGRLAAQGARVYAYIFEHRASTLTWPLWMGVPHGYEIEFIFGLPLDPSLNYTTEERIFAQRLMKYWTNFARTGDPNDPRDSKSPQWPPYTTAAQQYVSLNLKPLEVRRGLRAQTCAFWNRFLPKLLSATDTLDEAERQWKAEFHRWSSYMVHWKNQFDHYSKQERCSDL
As to the kind of experiment: Inhibition of ICR mouse brain AChE using acetylthiocholine iodide as substrate incubated 10 mins prior to substrate addition measured after 10 mins by Ellman's method.

Assay [4] deals with Mus musculus. As to the kind of experiment: Memory enhancing effect in ICR mouse assessed as reversal of scopolamine-induced amnesia by measuring step-through latencies at 2 mg/kg, po administered 1 hr prior to acquisition trial measured after 24 hrs by passive avoidance test relative to control. It counts as functional, organism-based. Details: dose 2 mg/kg.

As to `O=c1ccc2cc(OCCCN3CCCC3)c(O)cc2o1`, the result in the assay on Mus musculus [1] and in the assay on Mus musculus [3] was Active. Moreover, in the assay on Mus musculus [2], the outcome was inactive. The IC50 against Acetylcholinesterase is 2.87 µM.

Regarding `CC(C)NCCCOc1cc2ccc(=O)oc2cc1O`, the IC50 on Acetylcholinesterase stood at 27 µM.

Molecule `CCN(CC)CCCOc1cc2ccc(=O)oc2cc1O` returned an IC50 against Acetylcholinesterase of 30.5 µM.

The molecule `CCN(CC)CCOc1cc2ccc(=O)oc2cc1O` had a half-inhibitory concentration (IC50) against Acetylcholinesterase of 18.7 µM.

As to `O=c1ccc2cc(OCCN3CCCC3)c(O)cc2o1`, the result in the assay on Mus musculus [1] and with Mus musculus [4] was Active. Moreover, the result in the assay on Mus musculus [2] was inactive. This molecule came in with a half-maximal inhibitory concentration (IC50) at Acetylcholinesterase of 6.85 µM.

For `COc1ccc2c3c1O[C@H]1C[C@@H](O)C=C[C@@]31CCN(C)C2`, the result in the assay on Mus musculus [3] was Active.

Turning to `COc1cc2ccc(=O)oc2cc1O` [SCOPOLETIN], on Acetylcholinesterase, half-maximal inhibition (IC50) required 476 µM.

On to `O=c1ccc2cc(OCCCN3CCCCC3)c(O)cc2o1`, for which it took 19.1 µM to reach half-maximal inhibition against Acetylcholinesterase (IC50).

At Acetylcholinesterase, `O=c1ccc2cc(OCCN3CCCCC3)c(O)cc2o1` gave a half-maximal inhibitory concentration (IC50) of 12.2 µM.

(Values after ChEMBL document CHEMBL3112396, “Synthesis of aminoalkyl-substituted coumarin derivatives as acetylcholinesterase inhibitors” (Bioorg Med Chem, 2014).)
